Columns and labels:
[1] = biological target: Prostaglandin G/H synthase 1 (Ovis aries) (UniProt P05979); test: Inhibition of microsomal PGH synthase isolated from sheep seminal vesicles (SSV) estimated as rate of oxygen consumption in presence of 500 uM of the compound; Compound was found to be insoluble
[2] = biological target: Prostaglandin G/H synthase 1 (Ovis aries) (UniProt P05979); test: Inhibition of microsomal PGH synthase isolated from sheep seminal vesicles (SSV) estimated as rate of oxygen consumption in presence of 100 uM of the compound
[3] = biological target: Prostaglandin G/H synthase 1 (Ovis aries) (UniProt P05979); conditions: at 500 µM
[4] = biological target: Prostaglandin G/H synthase 1 (Ovis aries) (UniProt P05979); test: Inhibition of PGH synthase in sheep seminal vesicle microsomes
[5] = biological target: Prostaglandin G/H synthase 1 (Ovis aries) (UniProt P05979); test: Inhibition of microsomal PGH synthase isolated from sheep seminal vesicles (SSV) estimated as rate of oxygen consumption in presence of 500 uM of the compound; set-up: scale not given: the % may be the effect or the level left
[6] = biological target: Prostaglandin G/H synthase 1 (Ovis aries) (UniProt P05979); test: Inhibition of microsomal PGH synthase isolated from sheep seminal vesicles (SSV) estimated as rate of oxygen consumption in presence of 100 uM of the compound; set-up: scale not given: the % may be the effect or the level left

Chain of Prostaglandin G/H synthase 1 (Ovis aries) (P05979 whole entry, looked up): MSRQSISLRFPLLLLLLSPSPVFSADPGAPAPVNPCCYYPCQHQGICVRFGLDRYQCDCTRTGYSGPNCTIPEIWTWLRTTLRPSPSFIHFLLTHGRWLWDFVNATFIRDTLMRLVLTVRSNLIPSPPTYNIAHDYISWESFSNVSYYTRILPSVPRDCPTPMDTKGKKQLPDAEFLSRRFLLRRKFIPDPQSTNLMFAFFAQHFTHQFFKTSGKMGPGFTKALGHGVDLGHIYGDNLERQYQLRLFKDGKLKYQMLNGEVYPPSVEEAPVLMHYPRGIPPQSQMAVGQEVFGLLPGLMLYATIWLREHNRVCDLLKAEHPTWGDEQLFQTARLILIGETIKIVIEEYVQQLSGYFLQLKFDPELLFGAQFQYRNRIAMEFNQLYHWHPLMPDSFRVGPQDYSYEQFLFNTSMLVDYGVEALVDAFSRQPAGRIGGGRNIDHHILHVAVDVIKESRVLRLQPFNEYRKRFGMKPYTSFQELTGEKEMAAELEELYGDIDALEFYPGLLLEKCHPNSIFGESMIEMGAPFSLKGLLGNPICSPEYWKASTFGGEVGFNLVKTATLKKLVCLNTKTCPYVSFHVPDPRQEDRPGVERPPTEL

Control [1] | Oxygen consumption rate, % of control [2] [%] | Control [3] [%] | IC50 [4] [µM] | Control [5] | Control [6] [%] | Compound
 |  | 97 |  |  |  | CCCCC(C(=O)Nc1ccc(C)cc1)C(=O)Nc1ccc(C)cc1
 |  |  | 150 | 31% | 57 | CCCCC(C(=O)Nc1ccc(O)cc1C)C(=O)Nc1ccc(O)cc1C
 |  | 36 | 290 |  | 76 | CCCCC(C(=O)Nc1ccc(O)cc1)C(=O)Nc1ccc(O)cc1
Insoluble | 102 |  |  |  |  | CCCCC(C(=O)Nc1ccc(OC)cc1)C(=O)Nc1ccc(OC)cc1
Insoluble |  |  |  |  | 96 | CCCCC(C(=O)Nc1ccc(Cl)cc1)C(=O)Nc1ccc(Cl)cc1

The next lines start with the compound.

Compound | Control [1] | Oxygen consumption rate, % of control [2] [%] | Control [3] [%] | IC50 [4] [µM] | Control [5] | Control [6] [%]
COc1ccc(NC(=O)CC(=O)Nc2ccc(OC)cc2)cc1 | Insoluble | 78 |  |  |  | 
O=C(CCC(=O)Nc1ccc(O)cc1)Nc1ccc(O)cc1 |  | 79 |  | 240 | 27% | 
O=C(CC(=O)Nc1ccc(Cl)cc1)Nc1ccc(Cl)cc1 |  | 64 | 48 | 420 |  | 
O=C(CC(=O)Nc1cccc(O)c1)Nc1cccc(O)c1 |  |  | 86 |  |  | 
O=C(CC(=O)Nc1ccc(O)cc1)Nc1ccc(O)cc1 |  | 67 | 25 | 190 |  | 
O=C(CC(=O)Nc1ccc([N+](=O)[O-])cc1)Nc1ccc([N+](=O)[O-])cc1 |  |  |  |  | 88% | 
O=C(CCCCC(=O)Nc1ccc(O)cc1)Nc1ccc(O)cc1 |  |  | 26 | 230 |  | 67
CCCCC(C(=O)Nc1ccccc1)C(=O)Nc1ccccc1 | Insoluble | 105 |  |  |  | 
Cc1ccc(NC(=O)CC(=O)Nc2ccc(C)cc2)cc1 |  |  |  |  | 66% | 
O=C(CC(=O)Nc1ccccc1)Nc1ccccc1 |  |  | 55 |  |  | 65
CCCCC(C(=O)Nc1ccc([N+](=O)[O-])cc1)C(=O)Nc1ccc([N+](=O)[O-])cc1 |  |  |  |  | Insoluble | 126

From ChEMBL document CHEMBL1123683 (J Med Chem, 1987)
